Molecules are shown by their SMILES. Entries after “also recorded” stand apart in the source; their conditions may differ.

One series relates to mice. Nature of the series: Topical treatment of mothers throughout pregnancy, offspring development. Type of series: in vivo, mouse. The note with it: mothers treated topically, 0.5M, conception to birth. An excerpt: Acute Promyelocytic Leukemia (APL) is unique among myeloid leukemias due to its sensitivity to all-trans retinoic acid (ATRA), a derivative of vitamin A. Treatment with ATRA dissociates the NCOR-HDACL complex from RAR and allows DNA transcription and differentiation of the immature leukemic promyelocytes into mature granulocytes by targeting the oncogenic transcription factor and its aberrant action. […] A large number of scientific studies have also investigated a possible role for vitamin D in cancer prevention, including colon, prostate, breast, pancreatic and skin cancer. […] However, there are also reports of synergistic effects on the activation of gene expression by ATRA and Wnt for example (47). […] This is the same region of these coactivator proteins (i.e., CBP and p300) that partners with catenin (both beta and gamma) and the CBP/catenin antagonists (e.g., ICG-001) also bind to this region. These nuclear receptor ligands have many of the same differentiating effects on stem cell populations that applicant has observed with specific CBP/catenin antagonists. Although, both Vitamin A and D are required during development and have many beneficial health effects in adulthood, both are teratogenic at high levels. […]

The test system of series [1] is p300/beta-catenin interaction. The series is described as follows: Disruption of the p300/beta-catenin interaction. Type of series: biochemical. An excerpt: Applicant next mapped the binding domains between CBP and beta-catenin, as well as between p300 and beta-catenin. The C-terminal trans-activating region of beta-catenin (647-781) interacted with the same 1-111 amino acids of both CBP and p300 (23). However, only the interaction between CBP and beta-catenin was disrupted by ICG-001, and not the p300/beta-catenin interaction.
IQ-1. In addition to ICG-001, a screen of a large chemical library for maintenance of pluripotency in mES cells led to the identification of another compound, termed IQ-1 (FIG. 2b). […] I-Q-1 diminishes the interaction between p300 and beta-catenin thereby increasing the CBP/beta-catenin interaction (24).

For series [2], the system named is cerebral deposition of Aβ. The series is described as follows: Aβ deposition in penta-transgenic mouse model of Alzheimer's disease. Type of series: in vivo. The settings on record: 50 mg/kg/day, 2 months. As to the method: Applicant utilized a penta-transgenic mouse model of AD, which normally develops massive cerebral deposition of Aβ starting at 6 weeks of age. These mice were treated with either (A) ICG-001 (50 mg/kg/day) or (B) saline for 2 months. […] However, the effects of PS-1 mutations on the stability of beta-catenin, TCF/beta-catenin signaling, and thereby its potential role in AD remain controversial. […] In the CNS, EpB2 expression is associated with axonal guidance (16). […] In initial in vivo studies, applicant treated penta-transgenic mice that over express mutant APP (695) (Swedish (K670N, M671L), Florida (I716V) and London (V717I)) and PS-1 (M146L and L286V) mutations with ICG-001 for 2 months (months 2-4). These mice normally develop massive cerebral deposition of Aβ starting at 6 weeks of age.

The next series concerns SW620 xenograft. Nature of the series: Nude mouse SW620 xenograft model of colon cancer. Type of series: in vivo. From the text:
(§1) Cancer. The importance of Wnt signaling in colorectal cancer is undisputed. Applicant's investigation on the therapeutic utility of ICG-001 therefore quite naturally began with colon cancer.

Series [3] has as its system NOD/SCIDIL2R gamma−/− mice. The series is described as follows: Leukemia mouse model, hair growth and wound healing. The note with it: 50 mg/kg/d with VDL versus VDL only. Type of series: in vivo. As to the method:
NOD/SCIDIL2R gamma−/− mice were shaved and sublethally irradiated prior intravenous injection of 50,000 cells per animal. Leukemic animals were treated with a combination of intraperitoneally administered vincristine/dexamethasone/L-Aspariginase (VDL) and ICG-001 (50 mg/kg/d), which was delivered via subcutaneous osmotic pumps to ensure stable plasma levels, with VDL only as a control for 20 days. The animals were checked periodically for survival, hair growth, and wound healing.

Series [4] has as its system Wnt/catenin transcription (TOPFLASH) in SW480 colon carcinoma cells. Nature of the series: TOPFLASH TCF/catenin luciferase reporter in SW480 colon carcinoma cells. Type of series: cell-based. The settings on record: Homo sapiens. An excerpt: ICG-001. Applicant's pharmacologic tools were identified using cell-based forward chemical genomic screens of small molecule secondary structure template chemical libraries (22).
Background: Reporter assays use an easily measured gene product as a stand-in for the process of interest.

Series [5] has as its system rat type II lung epithelial cells. The series is described as follows: TGF-β1-induced EMT genes in lung epithelial cells. Type of series: cell-based. From the text: Fibrosis. Idiopathic pulmonary fibrosis (IPF)/usual interstitial pneumonia (UIP), the most common of the idiopathic interstitial pneumonias, is a devastating, progressive disorder characterized by excessive fibroblast proliferation and extracellular matrix remodeling leading to lung destruction. There is currently no effective therapy for this uniformly fatal disease. An emerging paradigm proposes a central role for alveolar epithelial cell injury and dysregulated repair in the pathogenesis of IPF. Injury to the epithelium is thought to initiate a cascade of fibroblast activation and matrix deposition, which in predisposed hosts fails to resolve as it would in the course of normal wound repair. Epithelial cells undergo excessive apoptosis, whereas fibroblasts are less amenable to apoptosis and manifest increased survival. The well-characterized model of bleomycin-induced lung injury has been extensively used to investigate potential pathways involved in the pathogenesis of pulmonary fibrosis and to explore therapeutic approaches.

The test system of another series is Min mouse. Nature of the series: Min mouse polyp model. Type of series: in vivo.
Excerpt: as §1

A word on the IC50: it is the concentration at which inhibition is half-maximal. For the compound `O=C1[C@H](Cc2ccc(O)cc2)N2C(=O)CCN(C(=O)NCc3ccccc3)[C@H]2CN1Cc1cccc2ccccc12` [ICG-001], in the series on mice, the fertility of offspring result is given as “could breed a second generation”; the “weight and size of offspring at 6 weeks of age” value was “normal weight and size”. In series [1], the p300/beta-catenin interaction entry was “without affecting”. In series [2], the “Aβ staining in the parietal lobe” value is “significant (A) decrease”. Also, the amyloid plaque formation entry in series [2] (immunohistochemistry) is on record as “significant decrease”. Besides, the tumor growth result in the series with SW620 xenograft was “reducing tumor growth”. The “healing of wounds from pump insertion” value in series [3] is “had substantial improved; also recorded: heal quicker”. In addition, in series [3] (within two weeks), the “hair growth of shaved area” value is “had regrown their hair; also recorded: substantial hair growth”. Besides, the IC50 in series [4] is 30 µM. Moreover, the “TGF-β1-induced up-regulation of α-SMA and type I collagen” value in series [5] is reported as “prevents”. Further, the polyps entry in the series on Min mouse is recorded as “reducing polyps”.

The record behind these values is patent US10092568B2, “CBP/Catenin antagonists for enhancing asymmetric division of somatic stem cells” (University of Southern California, priority 2010, dated 2018).
